According to patent US20080318884A1, “Methods for Altering Gene Expression and Methods of Treatment Utilizing Same” (THE UAB RESEARCH FOUNDATION, priority 2005, published 2008):

Tests used:
[1] = test system: wild type Hdh mRNA; assay: QSI treatment of control ES cells expressing a single wild type Hdh allele, Hdh mRNA by quantitative real time PCR; assay type: cell-based, mouse; settings: QSI for six hours, high glutamine, FIG. 2C
Experimental: (§1) ES cell lines hemizygous for HdhQ150 were treated with an inhibitor of the glutaminyl-tRNA synthetase, QSI (5′-O-[N-(L-glutaminyl)sulfamoyl]adenosine) for six hours in the presence of high levels of glutamine. […] In this case the long CAG repeat is used to represent a rare cluster of codons. This diminishment in disease allele expression was accomplished in the presence of high amounts of glutamine (1.2 grams/ml) showing that reduction of expression can be attained by inhibition of a tRNA synthetase while providing normal amounts of the amino acid which is a substrate for the synthetase reaction. […]
(§2) Since the quantitative real time PCR (QRTPCR) assay (described below) cannot distinguish between different alleles of Hdh it is necessary that the ES cells only express a single allele. […] These engineered ES cells express only the long repeat version of Hdh and lack wild type Hdh mRNA as determined by RT-PCR across the repeat region.
(§3) Finally, a quantitative real time PCR (QRTPCR) assays has been developed for both Hprt and Hdh mRNA. […] During the PCR reaction the polymerase destroys the oligo releasing the […] to allow fluorescence. Fluorescence is measured though every cycle and the point when it increases beyond threshold is logarithmically related to the amount of starting RNA. […]

[2] = test system: HdhQ150 mRNA; assay: QSI treatment of ES cells hemizygous for HdhQ150, Hdh mRNA by quantitative real time PCR; assay type: cell-based, mouse; settings: ES cells hemizygous for HdhQ150, QSI for six hours, high glutamine (1.2 grams/ml), FIG. 2C
Experimental: as §1, §2, §3

For `NC(=O)CC[C@H](N)C(=O)NS(=O)(=O)OC[C@H]1O[C@@H](n2cnc3c(N)ncnc32)[C@H](O)[C@@H]1O` [QSI, 5′-O-[N-(L-glutaminyl)sulfamoyl]adenosine], the “wild type Hdh mRNA levels” value [1] was “effect of QSI in lowering Hdh mRNA levels was dependent on the presence of the long CAG repeat” and the “HdhQ150 mRNA levels” value [2] was “lowered by QSI treatment in a dose dependent manner”.
